Our source for the pest or weed control values is US20230017045A1, “PYRIDINE AND PYRIMIDINE CARBOXYLATE HERBICIDES AND METHODS OF USE THEREOF” (Dow AgroSciences LLC, priority 2017, published 2023).

Like-named read-outs stand apart in the source and are kept apart here.

In the assay the test system is test plant species. The assay is described as follows: Post-emergent herbicidal activity test (greenhouse, foliar spray, visual growth reduction). The format is in vivo. The note with it: post-emergence, 336 h, 140 g ai/ha. The method in brief:
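Greenhouse plants at first–second true leaf stage sprayed overhead at 187 L/ha with compound in acetone/water/isopropanol/DMSO/crop oil/X-77 carrier; controls received solvent blank. Injury rated visually after 14 d on a 0–100% scale versus untreated and control plants, converted to growth reduction.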

[1] abbreviates: ECHCG: barnyardgrass (Echinochloa crus-galli), 14 days after application, read-out: Visual Growth Reduction (%) 14 Days After Application, ECHCG.
[2] abbreviates: IPOHE: ivy-leaf morning glory (Ipomoea hederacea), 14 days after application, read-out: Visual Growth Reduction (%) 14 Days After Application, IPOHE.
The mark [3] stands for this setting: KCHSC: kochia (Bassia scoparia), 14 days after application, read-out: Visual Growth Reduction (%) 14 Days After Application, KCHSC.
Where [4] appears, read: ORYSA: rice (Oryza sativa), 14 days after application, read-out: Visual Growth Reduction (%) 14 Days After Application, ORYSA.
The mark [5] stands for this setting: SETFA: giant foxtail (Setaria faberi), 14 days after application, read-out: Visual Growth Reduction (%) 14 Days After Application, SETFA.
Setting [6] is: SORVU: grain sorghum (Sorghum vulgare), 14 days after application, read-out: Visual Growth Reduction (%) 14 Days After Application, SORVU.
The mark [7] stands for this setting: STEME: common chickweed (Stellaria media), 14 days after application, read-out: Visual Growth Reduction (%) 14 Days After Application, STEME.
[8] abbreviates: TRZAS: wheat, spring (Triticum aestivum), 14 days after application, read-out: Visual Growth Reduction (%) 14 Days After Application, TRZAS.
Setting [9] is: blackgrass (Alopecurus myosuroides), 14 Days After Application, read-out: Visual Growth Reduction (%) ALOMY.
The mark [10] stands for this setting: canada thistle (Cirsium arvense), 14 Days After Application, read-out: Visual Growth Reduction (%) CIRAR.
Where [11] appears, read: crabgrass (Digitaria sanguinalis), 14 Days After Application, read-out: Visual Growth Reduction (%) DIGSA.
[12] abbreviates: lambsquarters (Chenopodium album), 14 Days After Application, read-out: Visual Growth Reduction (%) CHEAL.
Where [13] appears, read: redroot pigweed (Amaranthus retroflexus), 14 Days After Application, read-out: Visual Growth Reduction (%) AMARE.
The mark [14] stands for this setting: wild oat (Avena fatua), 14 Days After Application, read-out: Visual Growth Reduction (%) AVEFA.
The mark [15] stands for this setting: yellow nutsedge (Cyperus esculentus), 14 Days After Application, read-out: Visual Growth Reduction (%) CYPES.

For the compound `COC(=O)c1nc(-c2ccc(OC(F)F)cc2F)c(F)cc1Cl` [F221, Methyl 3-chloro-6-(4-(difluoromethoxy)-2-fluorophenyl)-5-fluoropicolinate], the pest or weed control at 140 g/ha under setting [1] fell in the range of 85 to 94%; the pest or weed control at 140 g/ha under setting [2] was in the range of 95 to 100%; the pest or weed control at 140 g/ha under setting [3] is 85 to 94%; the pest or weed control at 140 g/ha under setting [4] fell in the range of 0 to 29%; the pest or weed control at 140 g/ha under setting [5] was in the range of 85 to 94%; the pest or weed control at 140 g/ha under setting [6] is 95 to 100%. Further, the pest or weed control at 140 g/ha under setting [7] fell in the range of 0 to 29%; the pest or weed control at 140 g/ha under setting [8] was 75 to 84%; the pest or weed control at 140 g/ha under setting [9] fell in the range of 75 to 84%; the pest or weed control at 140 g/ha under setting [10] fell in the range of 95 to 100%; the pest or weed control at 140 g/ha under setting [11] lay within 95 to 100%; the pest or weed control at 140 g/ha under setting [12] is 95 to 100%. Moreover, the pest or weed control at 140 g/ha is, setting by setting: under setting [13], 95 to 100%; under setting [14], 75 to 84%; under setting [15], 75 to 84%.

With `C=Cc1cc(C(F)(F)F)cc(Cl)c1-c1ccc(Cl)c(C(=O)O)n1` [F222, 3-Chloro-6-(2-chloro-4-(trifluoromethyl)-6-vinylphenyl) picolinic acid], the pest or weed control at 140 g/ha was 60 to 74% under setting [1]; 95 to 100% under setting [2]; 45 to 59% under setting [3]; 0 to 29% under setting [4]; 30 to 44% under setting [5]; 75 to 84% under setting [6]. Also, the pest or weed control at 140 g/ha runs as follows: under setting [7], 0 to 29%; under setting [8], 45 to 59%; under setting [9], 0 to 29%; under setting [10], 85 to 94%; under setting [11], 75 to 84%; under setting [12], 75 to 84%. The pest or weed control at 140 g/ha is, setting by setting: under setting [13], 75 to 84%; under setting [14], 0 to 29%; under setting [15], 0 to 29%.

Consider `COc1cc(C(F)(F)F)cc(Cl)c1-c1ccc(Cl)c(C(=O)O)n1` [F223, 3-Chloro-6-(2-chloro-6-methoxy-4-(trifluoromethyl)phenyl) picolinic acid], for which the pest or weed control at 140 g/ha under setting [1] was in the range of 75 to 84%; the pest or weed control at 140 g/ha under setting [2] lay in the range of 95 to 100%; the pest or weed control at 140 g/ha under setting [3] was in the range of 95 to 100%; the pest or weed control at 140 g/ha under setting [4] was in the range of 30 to 44%; the pest or weed control at 140 g/ha under setting [5] was in the range of 85 to 94%; the pest or weed control at 140 g/ha under setting [6] fell in the range of 85 to 94%. For the same compound, the pest or weed control at 140 g/ha runs as follows: under setting [7], 60 to 74%; under setting [8], 75 to 84%; under setting [9], 0 to 29%; under setting [10], 95 to 100%; under setting [11], 60 to 74%; under setting [12], 95 to 100%. The pest or weed control at 140 g/ha by setting is: under setting [13], 95 to 100%; under setting [14], 60 to 74%; under setting [15], 45 to 59%.

On to `O=C(O)c1nc(-c2c(Cl)cc(C(F)(F)F)cc2[N+](=O)[O-])ccc1Cl` [F224, 3-Chloro-6-(2-chloro-6-nitro-4-(trifluoromethyl)phenyl)picolinic acid], for which the pest or weed control at 140 g/ha fell in the range of 0 to 29% under setting [1]; 95 to 100% under setting [2]; 45 to 59% under setting [3]; 45 to 59% under setting [4]; 45 to 59% under setting [5]; 60 to 74% under setting [6]. Besides, the pest or weed control at 140 g/ha reads like this: under setting [7], 0 to 29%; under setting [8], 0 to 29%; under setting [9], 0 to 29%; under setting [10], 45 to 59%; under setting [11], 75 to 84%; under setting [12], 95 to 100%. The pest or weed control at 140 g/ha under setting [13] was 85 to 94%, the pest or weed control at 140 g/ha under setting [14] was 0 to 29% and the pest or weed control at 140 g/ha under setting [15] was 0 to 29%.

Take `O=C(O)c1nc(-c2nc(Cl)c(C(F)(F)F)cc2Cl)ccc1Cl` [F225, 3′,5,6′-Trichloro-5'-(trifluoromethyl)-[2,2′-bipyridine]-6-carboxylic acid]: the pest or weed control at 140 g/ha reads like this: under setting [1], 95 to 100%; under setting [2], 95 to 100%; under setting [3], 95 to 100%; under setting [4], 85 to 94%; under setting [5], 95 to 100%; under setting [6], 95 to 100%. For the same compound, the pest or weed control at 140 g/ha under setting [7] fell in the range of 45 to 59%; the pest or weed control at 140 g/ha under setting [8] lay within 75 to 84%; the pest or weed control at 140 g/ha under setting [9] lay within 45 to 59%; the pest or weed control at 140 g/ha under setting [10] is 85 to 94%; the pest or weed control at 140 g/ha under setting [11] is 95 to 100%; the pest or weed control at 140 g/ha under setting [12] is 95 to 100%. Also, the pest or weed control at 140 g/ha under setting [13] is 95 to 100%, the pest or weed control at 140 g/ha under setting [14] lay within 95 to 100% and the pest or weed control at 140 g/ha under setting [15] was in the range of 45 to 59%.

Consider `O=C(O)c1nc(-c2ccc(OC(F)(F)F)cc2Cl)ccc1Cl` [F226, 3-Chloro-6-(2-chloro-4-4-(trifluoromethoxy)phenyl)picolinic acid], for which the pest or weed control at 140 g/ha under setting [1] fell in the range of 60 to 74%; the pest or weed control at 140 g/ha under setting [2] lay within 95 to 100%; the pest or weed control at 140 g/ha under setting [3] is 60 to 74%; the pest or weed control at 140 g/ha under setting [4] was 0 to 29%; the pest or weed control at 140 g/ha under setting [5] was 85 to 94%; the pest or weed control at 140 g/ha under setting [6] lay in the range of 85 to 94%. Further, the pest or weed control at 140 g/ha is, setting by setting: under setting [7], 0 to 29%; under setting [8], 45 to 59%; under setting [9], 45 to 59%; under setting [10], 85 to 94%; under setting [11], 95 to 100%; under setting [12], 95 to 100%. The pest or weed control at 140 g/ha reads like this: under setting [13], 60 to 74%; under setting [14], 45 to 59%; under setting [15], 0 to 29%.

Take `COC(=O)c1nc(-c2ccc(F)cc2)c(F)cc1Cl` [F227, Methyl 3-chloro-5-fluoro-6-(4-fluorophenyl) picolinate]: the pest or weed control at 140 g/ha was 0 to 29% under setting [1]; 60 to 74% under setting [2]; 0 to 29% under setting [3]; 0 to 29% under setting [4]; 0 to 29% under setting [5]; 60 to 74% under setting [6]. Further, the pest or weed control at 140 g/ha under setting [7] is 0 to 29%; the pest or weed control at 140 g/ha under setting [8] was 0 to 29%; the pest or weed control at 140 g/ha under setting [9] lay in the range of 0 to 29%; the pest or weed control at 140 g/ha under setting [10] fell in the range of 30 to 44%; the pest or weed control at 140 g/ha under setting [11] was 30 to 44%; the pest or weed control at 140 g/ha under setting [12] lay within 75 to 84%. For the same compound, the pest or weed control at 140 g/ha is 0 to 29% under setting [13], 0 to 29% under setting [14] and 0 to 29% under setting [15].

Turning to `COC(=O)c1nc(-c2c(C=O)cc(OC)c(O)c2Cl)ccc1Cl` [F228, Methyl 3-chloro-6-(2-chloro-6-formyl-3-hydroxy-4-methoxyphenyl) picolinate], the pest or weed control at 140 g/ha lay in the range of 0 to 29% under setting [1]; 0 to 29% under setting [2]; 0 to 29% under setting [3]; 0 to 29% under setting [4]; 0 to 29% under setting [5]; 0 to 29% under setting [6]. The pest or weed control at 140 g/ha reads like this: under setting [7], 0 to 29%; under setting [8], 0 to 29%; under setting [9], 0 to 29%; under setting [10], 0 to 29%; under setting [11], 0 to 29%; under setting [12], 0 to 29%. In addition, the pest or weed control at 140 g/ha was 0 to 29% under setting [13], 0 to 29% under setting [14] and 0 to 29% under setting [15].
